Data from PubChem BioAssay (NCI).
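These data come from cells grown in 96-well plates and exposed to compound for 48 hours at five concentrations. GI50 = concentration required for 50% inhibition of growth. TGI: total growth inhibition.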

What was measured:
Assay in all cases: inhibition of tumour cell growth, NCI panel, 48 h
HCT-116 colon = tested on: HCT-116 colon
MDA-MB-435 = tested on: MDA-MB-435
OVCAR-5 ovarian = tested on: OVCAR-5 ovarian
SNB-75 CNS = tested on: SNB-75 CNS
SK-MEL-5 melanoma = tested on: SK-MEL-5 melanoma
NCI-H460 lung = tested on: NCI-H460 lung
NCI-H522 lung = tested on: NCI-H522 lung
K-562 leukemia = tested on: K-562 leukemia
HT29 colon = tested on: HT29 colon
MCF7 breast = tested on: MCF7 breast
COLO 205 colon = tested on: COLO 205 colon
SK-MEL-28 melanoma = tested on: SK-MEL-28 melanoma
U251 CNS = tested on: U251 CNS
HS 578T breast = tested on: HS 578T breast
KM12 colon = tested on: KM12 colon
CCRF-CEM leukemia = tested on: CCRF-CEM leukemia
RPMI-8226 leukemia = tested on: RPMI-8226 leukemia
OVCAR-8 ovarian = tested on: OVCAR-8 ovarian
NCI-H226 lung = tested on: NCI-H226 lung
UACC-257 melanoma = tested on: UACC-257 melanoma
NCI/ADR-RES ovarian = tested on: NCI/ADR-RES ovarian
HCT-15 colon = tested on: HCT-15 colon
DU-145 prostate = tested on: DU-145 prostate
TK-10 renal = tested on: TK-10 renal
CAKI-1 renal = tested on: CAKI-1 renal
SW-620 colon = tested on: SW-620 colon
IGROV1 ovarian = tested on: IGROV1 ovarian
ACHN renal = tested on: ACHN renal
SK-MEL-2 melanoma = tested on: SK-MEL-2 melanoma
M14 melanoma = tested on: M14 melanoma
LOX IMVI melanoma = tested on: LOX IMVI melanoma
HOP-92 NSCLC = tested on: HOP-92 NSCLC
SNB-19 CNS = tested on: SNB-19 CNS
NCI-H23 lung = tested on: NCI-H23 lung
HOP-62 NSCLC = tested on: HOP-62 NSCLC
OVCAR-3 ovarian = tested on: OVCAR-3 ovarian
OVCAR-4 ovarian = tested on: OVCAR-4 ovarian
MDA-MB-231 breast = tested on: MDA-MB-231 breast
SF-539 CNS = tested on: SF-539 CNS
HCC-2998 colon = tested on: HCC-2998 colon
PC-3 prostate = tested on: PC-3 prostate
T-47D breast = tested on: T-47D breast
EKVX NSCLC = tested on: EKVX NSCLC
SN12C renal = tested on: SN12C renal
UACC-62 melanoma = tested on: UACC-62 melanoma
RXF 393 renal = tested on: RXF 393 renal
SF-268 CNS = tested on: SF-268 CNS
786-0 renal = tested on: 786-0 renal
UO-31 renal = tested on: UO-31 renal
SK-OV-3 ovarian = tested on: SK-OV-3 ovarian
BT-549 breast = tested on: BT-549 breast
A549 NSCLC = tested on: A549 NSCLC
SF-295 CNS = tested on: SF-295 CNS
MOLT-4 leukemia = tested on: MOLT-4 leukemia

What does the source list for `C=CCC(N[C@H](CO)c1ccccc1)c1cn(C(=O)OCC)c2ccccc12` (some centres not stated)?
GI50 (HCT-116 colon): 14.7 µM; TGI (HCT-116 colon): 28 µM; GI50 (MDA-MB-435): 18 µM; TGI (MDA-MB-435): 33.4 µM; GI50 (OVCAR-5 ovarian): 16.3 µM; TGI (OVCAR-5 ovarian): 33.8 µM; GI50 (SNB-75 CNS): 23 µM; TGI (SNB-75 CNS): 74.3 µM; GI50 (SK-MEL-5 melanoma): 17.5 µM; TGI (SK-MEL-5 melanoma): 32.8 µM; GI50 (NCI-H460 lung): 37.3 µM; TGI (NCI-H460 lung): > 100 µM; GI50 (NCI-H522 lung): 15.2 µM; TGI (NCI-H522 lung): 32.1 µM; GI50 (K-562 leukemia): 8.51 µM; TGI (K-562 leukemia): 33.2 µM; GI50 (HT29 colon): 31 µM; TGI (HT29 colon): > 100 µM; GI50 (MCF7 breast): 35.2 µM; TGI (MCF7 breast): > 100 µM; GI50 (COLO 205 colon): 19.5 µM; TGI (COLO 205 colon): 65.6 µM; GI50 (SK-MEL-28 melanoma): 28.4 µM; TGI (SK-MEL-28 melanoma): 66.1 µM; GI50 (U251 CNS): 17.8 µM; TGI (U251 CNS): 33.2 µM; GI50 (HS 578T breast): 19.4 µM; TGI (HS 578T breast): 46 µM; GI50 (KM12 colon): 16.7 µM; TGI (KM12 colon): 34.8 µM; GI50 (CCRF-CEM leukemia): 44 µM; TGI (CCRF-CEM leukemia): > 100 µM; GI50 (RPMI-8226 leukemia): 70.2 µM; TGI (RPMI-8226 leukemia): > 100 µM; GI50 (OVCAR-8 ovarian): 13.4 µM; TGI (OVCAR-8 ovarian): 27.7 µM; GI50 (NCI-H226 lung): 15.2 µM; TGI (NCI-H226 lung): 31 µM; TGI (UACC-257 melanoma): 18 µM; GI50 (NCI/ADR-RES ovarian): 15.9 µM; TGI (NCI/ADR-RES ovarian): 32.4 µM; GI50 (HCT-15 colon): 18.6 µM; TGI (HCT-15 colon): 39.4 µM; GI50 (DU-145 prostate): 19.3 µM; TGI (DU-145 prostate): 37.3 µM; GI50 (TK-10 renal): 16.5 µM; TGI (TK-10 renal): 34 µM; GI50 (CAKI-1 renal): 12.4 µM; TGI (CAKI-1 renal): 26.9 µM; GI50 (SW-620 colon): 25.6 µM; TGI (SW-620 colon): 52.2 µM; GI50 (IGROV1 ovarian): 8.46 µM; TGI (IGROV1 ovarian): 26.3 µM; GI50 (ACHN renal): 16.1 µM; TGI (ACHN renal): 30.2 µM; GI50 (SK-MEL-2 melanoma): 18.4 µM; TGI (SK-MEL-2 melanoma): 42 µM; GI50 (M14 melanoma): 14.3 µM; TGI (M14 melanoma): 28.2 µM; GI50 (LOX IMVI melanoma): 15.9 µM; TGI (LOX IMVI melanoma): 30.1 µM; GI50 (HOP-92 NSCLC): 18 µM; TGI (HOP-92 NSCLC): 35.7 µM; GI50 (SNB-19 CNS): 22.3 µM; TGI (SNB-19 CNS): 66.9 µM; GI50 (NCI-H23 lung): 15.8 µM; TGI (NCI-H23 lung): 32 µM; GI50 (HOP-62 NSCLC): 14.5 µM; TGI (HOP-62 NSCLC): 27.9 µM; GI50 (OVCAR-3 ovarian): 11.6 µM; TGI (OVCAR-3 ovarian): 25 µM; GI50 (OVCAR-4 ovarian): 37.3 µM; TGI (OVCAR-4 ovarian): > 100 µM; GI50 (MDA-MB-231 breast): 15.7 µM; TGI (MDA-MB-231 breast): 31.3 µM; GI50 (SF-539 CNS): 18.6 µM; TGI (SF-539 CNS): 35.1 µM; GI50 (HCC-2998 colon): 15.8 µM; TGI (HCC-2998 colon): 29.6 µM; GI50 (PC-3 prostate): 23.2 µM; TGI (PC-3 prostate): 69.3 µM; GI50 (T-47D breast): 25.1 µM; TGI (T-47D breast): > 100 µM; GI50 (EKVX NSCLC): 17.5 µM; TGI (EKVX NSCLC): 37.3 µM; GI50 (SN12C renal): 18.3 µM; TGI (SN12C renal): 32.7 µM; GI50 (UACC-62 melanoma): 16.4 µM; TGI (UACC-62 melanoma): 30.6 µM; GI50 (RXF 393 renal): 0.98 µM; TGI (RXF 393 renal): 21.3 µM; GI50 (SF-268 CNS): 32.1 µM; TGI (SF-268 CNS): 89.9 µM; GI50 (786-0 renal): 15.2 µM; TGI (786-0 renal): 28.9 µM; GI50 (UO-31 renal): 16.1 µM; TGI (UO-31 renal): 32.5 µM; GI50 (SK-OV-3 ovarian): 31.3 µM; TGI (SK-OV-3 ovarian): > 100 µM; GI50 (BT-549 breast): 19.8 µM; TGI (BT-549 breast): 39 µM; GI50 (A549 NSCLC): 13.1 µM; TGI (A549 NSCLC): 27.6 µM; GI50 (SF-295 CNS): 15.4 µM; TGI (SF-295 CNS): 29.3 µM; GI50 (MOLT-4 leukemia): 17.8 µM; TGI (MOLT-4 leukemia): 41.6 µM
